Measured values published in PMC7895427, “A stapled peptide mimetic of the CtIP tetramerization motif interferes with double-strand break repair and replication fork protection” (Science Advances, 2021).
Positions of bridges follow the written chain, without caps; N, C: chain ends. Non-standard residues stand in square brackets, D forms with d. Residues, ends and D or L forms follow the SMILES beside them. R8 = C=CCCCCCC[C@@](C)(N)C(=O)O; S5 = C=CCCC[C@](C)(N)C(=O)O

What was measured:
MCF10A = test: Clonogenic survival assay; format: cell-based; conditions: 10 μM peptide 24 hours, 10 days growth; BRCA1 wt nontumorigenic cell line
Method: (§1) Two hundred cells per well were seeded into poly-L-lysine (Sigma-Aldrich)–coated 24-well plates and the next day treated with respective drugs (CPT, Sigma-Aldrich; olaparib, Selleck Chemicals) and peptides (total volume: 300 μl per well). For details, see figure legends. After 10 days of growth, cells were fixed with crystal violet solution [0.5% crystal violet and 20% ethanol (w/v)]. Plates were scanned, and survival was analyzed with the ImageJ plugin Colony Area using the parameter colony intensity as readout ([47]).

HeLa cells = test: Clonogenic survival assay; format: cell-based; conditions: 10 μM, fig. S7A
Method: as §1

MCF7 = test: Clonogenic survival assay; format: cell-based; conditions: 10 μM peptide 24 hours, 10 days growth; BRCA1 wt breast cancer cell line
Method: as §1

RPE1 = test: Clonogenic survival assay; format: cell-based; conditions: 10 μM peptide 24 hours, 10 days growth; BRCA1 wt nontumorigenic cell line
Method: as §1

U2OS cells = test: EdU incorporation, cell cycle distribution and cell proliferation; format: cell-based; conditions: fig. S5, E and F; proliferation at 5 μM
Method: HeLa cells were seeded into six-well plates and incubated with peptides in a volume of 2 ml for varying time points. Cells were harvested by trypsinization, washed, and resuspended in PBS before subjecting them to flow cytometry analysis. FITC intensity was measured with an Attune Nxt flow cytometer equipped with a 488-nm laser and 530/30 band-pass filter. Analysis of 5-Ethynyl-2′-deoxyuridine (EdU) incorporation was carried out using the Click-iT EdU technology (Thermo Fisher Scientific) as described in the manufacturer’s instructions. A minimum of 20,000 events were recorded.
A total of 125 and 250 U2OS cells were seeded in triplicates in 96-well plates in a volume of 90 μl. Twenty-four hours after seeding, 10 μl of medium only or medium with the indicated peptides was added to the wells reaching a final peptide concentration of 5 μM. Cell proliferation was monitored using a CellTiter-Blue–based (Promega) approach at specific time points (0, 2, 5, and 7 days after peptide treatment). In brief, 20-μl CellTiter-Blue reagent (Promega) was added to the wells, incubated for 4 hours, and fluorescence intensity was measured at 560/590 nm using a SpectraMax M5 microplate reader (Molecular Devices).

[1] = CD spectroscopy and CD thermal denaturation; format: physicochemical; conditions: 210 nm, 25° until 90°C, ddH2O
Method: CD spectroscopy data were collected on a Jasco J-710 spectropolarimeter. A total of 0.2 or 0.05 mg/ml of LP^18–28 or SP^18–28 in ddH2O was measured with a 1-mm path length cuvette. CD spectra were recorded at 0.5-nm intervals between 190 and 260 nm at 25°C. CD thermal denaturation data were recorded at 210 nm at 0.2°C intervals starting at 25° until 90°C.

U2OS EGFP-HR = test: HR reporter assay; format: cell-based; conditions: 10 μM peptide, 24 hours; GFP-positive cells by flow cytometry; n = 4
Method: HR reporter assay was performed as described previously ([45], [46]). Briefly, U2OS EGFP-HR were seeded into a 12-well plate and the day after transfected with pCBA I-SceI expression plasmid using jetPRIME transfection reagent (Polyplus). Four hours later, medium was exchanged, and cells were incubated with peptides for 24 hours in 1-ml total volume. Twenty-four hours later, medium was replaced, and cells were harvested 48 hours after I-SceI transfection. A-EJ reporter assay was performed according to ([10]) with some minor modifications. Specifically, U2OS EGFP-aEJ were seeded into six-well plates and siRNA transfected. Six hours later, cells were transfected with I-SceI expression plasmid (pCBA) using Fugene 6 (Promega). Medium was exchanged 24 hours after and replaced with 2-ml fresh medium and the peptides (10 μM). Twenty-four hours later, medium was again replaced with fresh medium without peptides, and 72 hours after I-SceI transfection, cells were harvested. GFP expression (readout for HR and a-EJ frequency) was measured by flow cytometry using the Attune Nxt flow cytometer equipped with a 488-nm laser and 530/30 band-pass filter. A minimum of 20,000 events were recorded.

full-length CtIP-wt = target: T1, full-length CtIP-wt (Homo sapiens, UniProt Q99708); test: Blue native PAGE of full-length CtIP incubated with peptides; format: biochemical; conditions: 1- to 32-fold molar excess SP^18–28, 32-fold LP^18–28, 30 min RT
T1 construct: Full-length CtIP was purified according to ([14]); 3xFLAG; made in house
Method: Reactions were assembled in a volume of 10 μl with a 1.5 μM final concentration of CtIP and either 0, 1.5, 3, 6, 12, 24, or 48 μM LP/SP^18–28 in buffer A [10 mM tris (pH 8.0), 25 mM NaCl, 5% glycerol, and 0.5 mM dithiothreitol (DTT)] and 1× Blue Native Loading buffer [50 mM bis-tris (pH 7.2), 6 N HCl, 50 mM NaCl, 10% (w/v) glycerol, and 0.001% Ponceau S]. After incubation for 30 min at RT, samples were loaded onto a NativePAGE Novex 3 to 12% bis-tris gel (Invitrogen) and run at 150 V for 75 min. Gels were fixed in 40% methanol (MeOH) and 10% acetic acid and destained with 8% acetic acid.

U2OS^GFP-CtIP-wt = test: Laser microirradiation, GFP-CtIP recruitment to γH2AX-decorated laser stripes; format: cell-based; conditions: 10 μM peptide, 24 hours, fixed 30 min after microirradiation; n = 4
Method: Laser microirradiation was carried out as described previously ([25]). Briefly, cells were grown in 10 μM 5-bromo-2′-deoxyuridine (BrdU) for 24 hours before irradiation. Laser microirradiation was performed using a MMI CELLCUT system containing an ultraviolet (UV) A laser of 355 nm. Energy output was set to 50%, and each cell was exposed to laser beam for <300 ms. Cells were released for 30 min before fixation in 4% formaldehyde (w/v) in PBS for 15 min and permeabilization with 0.5% Triton X-100 (w/v) in PBS for 5 min at RT. After blocking with 3% FCS (w/v) in PBS for 1 hour, cells were stained with primary antibodies (table S3) for 2 hours. Staining with secondary antibodies (table S3) was performed for 1 hour. Coverslips were mounted with Vectashield supplemented with DAPI (4′,6-diamidino-2-phenylindole; Vector Laboratories), and images were acquired on a Leica DM6, 63× objective. For CtIP foci analyses, cells were fixed in 4% formaldehyde (w/v) in PBS for 15 min before permeabilization with 0.5% Triton X-100 (w/v) in PBS for 5 min at RT. A blocking step with 3% FCS (w/v) in PBS for 1 hour was followed by primary (2-hour) and secondary (1-hour) staining at RT.

T1 sequence (Q99708 whole entry): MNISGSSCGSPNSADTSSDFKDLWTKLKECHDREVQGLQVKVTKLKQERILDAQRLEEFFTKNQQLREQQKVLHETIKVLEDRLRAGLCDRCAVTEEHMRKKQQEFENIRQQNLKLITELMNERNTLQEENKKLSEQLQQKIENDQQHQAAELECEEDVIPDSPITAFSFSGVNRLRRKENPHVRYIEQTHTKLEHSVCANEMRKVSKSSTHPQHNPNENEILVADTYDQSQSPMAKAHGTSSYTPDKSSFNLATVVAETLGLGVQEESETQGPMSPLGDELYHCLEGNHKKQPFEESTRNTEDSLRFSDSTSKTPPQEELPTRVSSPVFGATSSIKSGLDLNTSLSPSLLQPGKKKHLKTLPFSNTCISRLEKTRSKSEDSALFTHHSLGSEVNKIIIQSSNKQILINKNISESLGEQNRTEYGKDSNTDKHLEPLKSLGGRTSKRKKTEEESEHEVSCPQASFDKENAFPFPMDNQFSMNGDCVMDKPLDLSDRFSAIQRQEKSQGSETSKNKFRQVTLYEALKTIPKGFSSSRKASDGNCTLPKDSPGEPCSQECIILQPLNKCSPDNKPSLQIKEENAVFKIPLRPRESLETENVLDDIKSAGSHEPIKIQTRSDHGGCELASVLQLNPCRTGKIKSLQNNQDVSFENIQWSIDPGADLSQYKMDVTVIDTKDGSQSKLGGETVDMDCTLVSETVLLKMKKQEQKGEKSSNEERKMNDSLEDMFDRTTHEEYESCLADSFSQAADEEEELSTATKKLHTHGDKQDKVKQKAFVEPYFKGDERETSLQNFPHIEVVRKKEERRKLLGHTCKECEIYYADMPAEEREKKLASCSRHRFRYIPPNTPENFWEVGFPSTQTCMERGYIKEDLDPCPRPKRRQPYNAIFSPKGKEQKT

Row | Compound | cell survival (clonogenic) (MCF10A) | tolerability of acute peptide treatment (clonogenic) (HeLa cells; acute (24-hour) treatment) | cytotoxicity of chronic peptide treatment on its own (clonogenic) (HeLa cells; prolonged chronic treatment) | cell survival (clonogenic) (MCF7) | cell survival (clonogenic) (RPE1) | bulk DNA replication, cell cycle distribution and cell proliferation (U2OS cells) | heat stability of secondary structure (CD thermal denaturation) [1] | HR frequency of I-SceI–induced DSBs (U2OS EGFP-HR) | effect on CtIP-wt oligomeric state (full-length CtIP-wt) | CtIP recruitment to γH2AX-decorated laser stripes (U2OS^GFP-CtIP-wt)
1 | CC(=O)N[C@@H](CO)C(=O)N[C@]1(C)CCCCCCC=CCCC[C@@](C)(C(=O)N[C@@H](CC(C)C)C(=O)N[C@@H](CCCCN)C(N)=O)NC(=O)[C@H]([C@@H](C)O)NC(=O)[C@H](Cc2c[nH]c3ccccc23)NC(=O)[C@H](CC(C)C)NC(=O)[C@H](CC(=O)O)NC(=O)[C@H](CCCCN)NC(=O)[C@H](Cc2ccccc2)NC1=O [SP^18–28] (Ac-S[R8]FKDLWT[S5]LK-NH2; staple 2-9) | did not perceive a negative impact on cell survival | well tolerated | extreme cytotoxicity | did not perceive a negative impact on cell survival | did not perceive a negative impact on cell survival | neither interferes with bulk DNA replication nor causes any significant changes in cell cycle distribution and cell proliferation | no unfolding could be observed at temperatures of up to 90 °C |  |  | 
2 | Ac-SDFKDLWTKLK-NH2 [LP^18–28] |  |  |  |  |  |  |  | no measurable impact | no apparent structural changes | no significant effect
